Experiments:
[1] = molecular target: T1, human aryl hydrocarbon receptor (AHR) (Homo sapiens, UniProt P35869); assay: competition with radioiodinated photoaffinity ligand in hAHR liver cytosol; also gel shift with in vitro translated hAHR/ARNT; design: human AHR transgene expressed in mouse liver (hepatic cytosol)
Target sequence in this assay (P35869 11-848): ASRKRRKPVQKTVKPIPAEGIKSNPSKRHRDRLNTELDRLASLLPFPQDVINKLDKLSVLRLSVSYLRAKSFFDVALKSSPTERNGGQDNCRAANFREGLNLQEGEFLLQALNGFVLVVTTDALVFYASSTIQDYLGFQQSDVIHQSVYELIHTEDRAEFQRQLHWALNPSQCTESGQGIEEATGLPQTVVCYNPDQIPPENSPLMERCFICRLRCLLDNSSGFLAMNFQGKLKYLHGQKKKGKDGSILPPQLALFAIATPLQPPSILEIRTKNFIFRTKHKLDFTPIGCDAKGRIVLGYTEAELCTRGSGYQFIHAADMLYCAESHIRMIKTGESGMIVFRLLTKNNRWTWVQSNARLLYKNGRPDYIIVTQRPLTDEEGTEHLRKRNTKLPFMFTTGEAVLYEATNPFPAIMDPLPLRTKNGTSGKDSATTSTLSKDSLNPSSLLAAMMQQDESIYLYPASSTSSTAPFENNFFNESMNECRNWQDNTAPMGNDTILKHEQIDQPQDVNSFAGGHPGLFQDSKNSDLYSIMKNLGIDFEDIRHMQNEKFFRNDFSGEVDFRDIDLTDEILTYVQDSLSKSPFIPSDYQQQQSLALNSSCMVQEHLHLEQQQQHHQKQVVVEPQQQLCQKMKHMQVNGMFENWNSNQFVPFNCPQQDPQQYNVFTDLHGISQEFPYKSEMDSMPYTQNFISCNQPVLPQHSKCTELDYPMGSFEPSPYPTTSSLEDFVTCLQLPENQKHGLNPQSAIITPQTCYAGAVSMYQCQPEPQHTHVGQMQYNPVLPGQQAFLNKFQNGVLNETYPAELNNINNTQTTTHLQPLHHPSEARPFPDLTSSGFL

chimpanzee AHR [2] = molecular target: T2, chimpanzee AHR (Pan troglodytes, UniProt K7AJA4); assay: gel shift (EMSA) of in vitro translated AHR/ARNT, […] indole; assay type: cell-based
T2 construct: in vitro translated chimpanzee AHR; with ARNT
T2 sequence (K7AJA4 1-850): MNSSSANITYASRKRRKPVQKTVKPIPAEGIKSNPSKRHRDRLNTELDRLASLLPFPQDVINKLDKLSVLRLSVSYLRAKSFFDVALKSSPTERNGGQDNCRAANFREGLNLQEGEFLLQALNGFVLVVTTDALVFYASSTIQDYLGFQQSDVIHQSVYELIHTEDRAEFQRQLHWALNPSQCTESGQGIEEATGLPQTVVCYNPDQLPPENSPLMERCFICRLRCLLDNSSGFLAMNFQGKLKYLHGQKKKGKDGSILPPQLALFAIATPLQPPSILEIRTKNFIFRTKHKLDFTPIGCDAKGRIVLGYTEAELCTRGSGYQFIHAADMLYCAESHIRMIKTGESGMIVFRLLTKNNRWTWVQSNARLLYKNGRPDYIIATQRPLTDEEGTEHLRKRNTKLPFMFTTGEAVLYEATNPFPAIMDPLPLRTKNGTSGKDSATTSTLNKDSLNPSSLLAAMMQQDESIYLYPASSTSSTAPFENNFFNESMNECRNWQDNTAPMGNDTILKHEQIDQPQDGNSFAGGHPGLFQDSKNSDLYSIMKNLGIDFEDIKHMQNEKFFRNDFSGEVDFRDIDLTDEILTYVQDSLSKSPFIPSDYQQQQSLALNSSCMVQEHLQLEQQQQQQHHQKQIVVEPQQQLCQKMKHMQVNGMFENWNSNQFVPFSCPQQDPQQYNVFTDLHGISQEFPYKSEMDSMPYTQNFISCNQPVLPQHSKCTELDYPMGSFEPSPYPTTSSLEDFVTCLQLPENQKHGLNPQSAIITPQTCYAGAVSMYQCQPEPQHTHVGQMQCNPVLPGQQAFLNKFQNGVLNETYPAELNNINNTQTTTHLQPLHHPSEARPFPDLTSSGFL

[3] = molecular target: T1, human aryl hydrocarbon receptor (AHR); assay: gel shift (EMSA) of in vitro translated AHR/ARNT; HepG2 reporter; assay type: cell-based; design: in vitro translated human AHR; with ARNT
Target sequence in this assay (P35869 11-848): as the sequence (P35869 11-848) above
Target sequence in this assay (P27540 2-789 partner): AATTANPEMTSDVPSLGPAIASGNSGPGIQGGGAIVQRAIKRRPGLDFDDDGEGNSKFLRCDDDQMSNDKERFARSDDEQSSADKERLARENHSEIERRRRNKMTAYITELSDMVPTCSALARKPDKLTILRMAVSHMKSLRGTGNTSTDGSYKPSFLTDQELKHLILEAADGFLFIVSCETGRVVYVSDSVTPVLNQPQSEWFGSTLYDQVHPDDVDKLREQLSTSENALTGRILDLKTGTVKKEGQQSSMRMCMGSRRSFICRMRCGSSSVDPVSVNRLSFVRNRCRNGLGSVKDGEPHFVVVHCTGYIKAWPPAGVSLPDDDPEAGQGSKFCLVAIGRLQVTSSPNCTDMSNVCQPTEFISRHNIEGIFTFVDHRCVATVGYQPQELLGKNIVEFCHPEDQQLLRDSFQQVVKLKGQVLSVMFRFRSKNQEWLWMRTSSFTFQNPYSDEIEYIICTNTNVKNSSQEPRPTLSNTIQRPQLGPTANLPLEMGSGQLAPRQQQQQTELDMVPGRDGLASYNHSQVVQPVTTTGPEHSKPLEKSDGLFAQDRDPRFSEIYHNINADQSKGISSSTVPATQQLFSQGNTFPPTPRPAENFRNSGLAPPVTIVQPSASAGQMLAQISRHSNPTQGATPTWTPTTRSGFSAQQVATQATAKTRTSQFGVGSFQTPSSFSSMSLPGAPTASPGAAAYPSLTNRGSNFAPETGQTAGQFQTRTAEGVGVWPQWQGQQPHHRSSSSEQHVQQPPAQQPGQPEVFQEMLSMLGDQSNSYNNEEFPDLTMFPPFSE

chimpanzee AHR [4] = molecular target: T2, chimpanzee AHR; assay: gel shift (EMSA) of in vitro translated AHR/ARNT, […] TCDD; assay type: cell-based

c1ccc2[nH]ccc2c1 [indole]
competition with radioiodinated photoaffinity ligand in hAHR liver cytosol; also [1]: dose-dependent decrease in PAL binding consistent with indole being a competitor and direct ligand for the human AHR
gel shift (EMSA) of in vitro translated AHR/ARNT, 20 μM indole (chimpanzee AHR [2]): revealed chimpanzee AHR to be sensitive to both TCDD and indole-mediated activation

Cc1c[nH]c2ccccc12 [3-MI, 3-methyl indole]
gel shift (EMSA) of in vitro translated AHR/ARNT; HepG2 reporter [3]: 3-methyl indole, like indole was associated with enhanced binding of AHR/ARNT to its cognate response element

Clc1cc2c(cc1Cl)Oc1cc(Cl)c(Cl)cc1O2 [TCDD]
gel shift (EMSA) of in vitro translated AHR/ARNT, 10 nM TCDD (chimpanzee AHR [4]): revealed chimpanzee AHR to be sensitive to both TCDD and indole-mediated activation

— publication PMC4522678, “Adaptation of the human aryl hydrocarbon receptor to sense microbiota-derived indoles” (Scientific Reports, 2015)
